Test results reported in patent US5571534A, “Drug formulations for parenteral use” (Orion-yhtyma Oy, priority 1991, dated 1996).
≈ marks a conversion by molar mass, not a printed value. Read-outs that look alike come from different tables or passages of the source.

Tests used:
[1] = HPLC measurement of the solubility of the anti-estrogen in an aqueous solution of 2-hydroxypropyl cyclodextrin; type: physicochemical; settings: room temperature; for solubility: read-out: Toremifene solubility (mg of toremifene / ml of cyclodextrin-water soln.)
Protocol: A weighed amount of 2-hydroxypropyl cyclodextrin was dissolved into distilled water by shaking with a shaker. The so formed clear solution was equilibrated with a large excess of antiestrogen at the boiling point. […] The solution was kept overnight at room temperature and the excess of precipitated antiestrogen was removed by centrifugation.
The separations were carried out at room temperature on a 35 * 4.6 mm stainless steel column (packed with 3-μm spherical octadecylsilanebonded silica particles; HS-3 C-18, (Perkin-Elmer, USA)
The mobile phase consisted of a mixture of acetonitrile: 0.05 M aqueous phosphate buffer containing 0.004 M of dimethyloctyl amine with a pH of 7.4. The flow rate was 0.8 ml/min.

[2] = Toremifene concentration in emulsion (Emulsan 20%) after filtration, spectrophotometric at 278 nm; type: physicochemical; settings: for Concentration after filtration: toremifene citrate in Emulsan 20%
Protocol: Emulsions prepared by dissolving the drug in a commercial fat emulsion.
The commercial fat emulsion used was Emulsan®20% (manufacturer Leiras-Kabi Infusion Ltd., Finland). […] The toremifene concentrations were 10 mg/ml, 14 mg/ml and 20 mg/ml. After the homogenization the samples were filtered through the 0.2 μm, 0.45 μm and 1.2 μm filters.
The concentration of toremifene was determined from the filtrate with a spectrofotometric method using the wave length of 278 nm. The samples were dissolved in methanol and diluted in the concentration of 0.02 mg/ml.

multidrug resistance = settings: high vs low plasma concentrations; J Clinical Oncology 1989; cited from earlier work

Row | Desmethyl toremifene solubility (ml of desmethyl toremifene / ml of cyclodextrin-water soln.) ([1]; 125 mg β-HPC/ml of aqueous soln.) | SMILES | solubility ([1]; aqueous 2-hydroxypropyl cyclodextrin solution, 500 mg β-HPC/ml of aqueous soln.) | solubility ([1]; aqueous β-hpc solution, 25 mg/ml, 25 mg β-HPC/ml of aqueous soln.) | solubility ([1]; aqueous β-hpc solution, 63 mg/ml, 63 mg β-HPC/ml of aqueous soln.) | solubility ([1]; aqueous β-hpc solution, 125 mg/ml, 125 mg β-HPC/ml of aqueous soln.) | solubility ([1]; aqueous β-hpc solution, 250 mg/ml, 250 mg β-HPC/ml of aqueous soln.) | solubility ([1]; aqueous γ-hpc solution, 125 mg/ml, 125 mg Γ-HPC/ml of aqueous soln.) | solubility ([1]; aqueous γ-hpc solution, 250 mg/ml, 250 mg Γ-HPC/ml of aqueous soln.) | solubility ([1]; aqueous γ-hpc solution, 500 mg/ml, 500 mg Γ-HPC/ml of aqueous soln.) | solubility ([1]; water, 0 mg β-HPC/ml of aqueous soln.) | Concentration after filtration ([2]; 10 mg/ml before filtration, 0.2 μm filter) | Concentration after filtration ([2]; 10 mg/ml before filtration, 0.45 μm filter) | Concentration after filtration ([2]; 10 mg/ml before filtration, 1.2 μm filter) | Concentration after filtration ([2]; 14 mg/ml before filtration, 0.45 μm filter) | Concentration after filtration ([2]; 14 mg/ml before filtration, 1.2 μm filter) | Concentration after filtration ([2]; 20 mg/ml before filtration, 0.45 μm filter) | Concentration after filtration ([2]; 20 mg/ml before filtration, 1.2 μm filter) | solubility of toremifene by encapsulating in an emulsion droplet ([2]; emulsion droplet) | reversing multidrug resistance (multidrug resistance)
1 | 21 mg/mL | CNCCOc1ccc(/C(=C(/CCCl)c2ccccc2)c2ccccc2)cc1 [desmethyl toremifene] | – | – | – | – | – | – | – | – | – | – | – | – | – | – | – | – | – | –
2 | – | CN(C)CCOc1ccc(/C(=C(/CCCl)c2ccccc2)c2ccccc2)cc1 [toremifene] | 87.7 mg/mL (≈ 216 mM) | 7.4 mg/mL (≈ 18.2 mM) | 14.1 mg/mL (≈ 34.7 mM) | 21.7 mg/mL (≈ 53.5 mM) | 53 mg/mL (≈ 131 mM) | 36.3 mg/mL (≈ 89.4 mM) | 61.1 mg/mL (≈ 151 mM) | 125 mg/mL (≈ 309 mM) | 0.3 mg/mL (≈ 0.739 mM) | 4400 µg/mL | 4000 µg/mL | 4400 µg/mL | 4300 µg/mL | 3700 µg/mL | 3600 µg/mL | 3600 µg/mL | can be increased considerably | more effective in reversing multidrug resistance than low concentrations
